Data published in ChEMBL document CHEMBL1201862, “PubChem BioAssay data set” (2004).
Activity calls are given as the source filed them.

What was measured:
[1] = A cytotoxicity screen of small molecule inhibitors of the PhoP region in Salmonella typhi identified in the primary screen. [Related pubchem assays: 1850, 1864, 1985 ]; format: functional
Aspartyl aminopeptidase = biological target: T1, Aspartyl aminopeptidase (Plasmodium falciparum 3D7, UniProt Q8I2J3)
T1 sequence (Q8I2J3 whole entry): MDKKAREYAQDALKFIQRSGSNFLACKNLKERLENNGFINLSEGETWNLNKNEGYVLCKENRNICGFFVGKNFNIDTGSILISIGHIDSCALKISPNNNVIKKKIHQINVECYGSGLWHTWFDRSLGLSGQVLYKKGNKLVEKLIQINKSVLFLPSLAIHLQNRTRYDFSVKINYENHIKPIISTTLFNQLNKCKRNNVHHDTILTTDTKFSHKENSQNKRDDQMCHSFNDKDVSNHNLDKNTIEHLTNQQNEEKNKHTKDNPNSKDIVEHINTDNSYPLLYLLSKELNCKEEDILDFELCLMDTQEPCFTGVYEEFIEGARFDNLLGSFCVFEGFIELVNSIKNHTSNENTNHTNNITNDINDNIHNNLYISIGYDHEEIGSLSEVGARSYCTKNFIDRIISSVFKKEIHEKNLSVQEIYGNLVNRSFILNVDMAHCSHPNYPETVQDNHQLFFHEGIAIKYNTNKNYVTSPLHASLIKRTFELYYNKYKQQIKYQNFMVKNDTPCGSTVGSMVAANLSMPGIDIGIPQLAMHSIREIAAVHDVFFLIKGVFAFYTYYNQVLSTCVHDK

Procathepsin L = Procathepsin L (Homo sapiens, UniProt P07711)
[2] = Luminescence Cell-Based Dose Response HTS to Identify Activators of Luciferase Translation or Activity in H4 […] Cells. [Related pubchem assays: 1829 (Project Summary), 1814 (Primary HTS)]; format: functional
H4 = experiment: Luminescence Cell-Based Dose Response HTS to Identify Activators of 5'UTR Stem-Loop Driven Prion Protein mRNA Translation in H4 Neuroglioblastoma Cells. [Related pubchem assays: 1829 (Project Summary), 1814 (Primary HTS)]; format: functional; settings: Homo sapiens
[3] = biological target: T2, Short transient receptor potential channel 4 (Mus musculus, UniProt Q9QUQ5); experiment: mouse TRPC4 channel inhibitors, dose response, cell-based, HEK293 TRPC4/mu-opioid, Fluo-4 calcium (AID 434942); format: functional;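 further: potency of inhibitors blocking the TRPC4 calcium response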
T2 sequence (Q9QUQ5 whole entry): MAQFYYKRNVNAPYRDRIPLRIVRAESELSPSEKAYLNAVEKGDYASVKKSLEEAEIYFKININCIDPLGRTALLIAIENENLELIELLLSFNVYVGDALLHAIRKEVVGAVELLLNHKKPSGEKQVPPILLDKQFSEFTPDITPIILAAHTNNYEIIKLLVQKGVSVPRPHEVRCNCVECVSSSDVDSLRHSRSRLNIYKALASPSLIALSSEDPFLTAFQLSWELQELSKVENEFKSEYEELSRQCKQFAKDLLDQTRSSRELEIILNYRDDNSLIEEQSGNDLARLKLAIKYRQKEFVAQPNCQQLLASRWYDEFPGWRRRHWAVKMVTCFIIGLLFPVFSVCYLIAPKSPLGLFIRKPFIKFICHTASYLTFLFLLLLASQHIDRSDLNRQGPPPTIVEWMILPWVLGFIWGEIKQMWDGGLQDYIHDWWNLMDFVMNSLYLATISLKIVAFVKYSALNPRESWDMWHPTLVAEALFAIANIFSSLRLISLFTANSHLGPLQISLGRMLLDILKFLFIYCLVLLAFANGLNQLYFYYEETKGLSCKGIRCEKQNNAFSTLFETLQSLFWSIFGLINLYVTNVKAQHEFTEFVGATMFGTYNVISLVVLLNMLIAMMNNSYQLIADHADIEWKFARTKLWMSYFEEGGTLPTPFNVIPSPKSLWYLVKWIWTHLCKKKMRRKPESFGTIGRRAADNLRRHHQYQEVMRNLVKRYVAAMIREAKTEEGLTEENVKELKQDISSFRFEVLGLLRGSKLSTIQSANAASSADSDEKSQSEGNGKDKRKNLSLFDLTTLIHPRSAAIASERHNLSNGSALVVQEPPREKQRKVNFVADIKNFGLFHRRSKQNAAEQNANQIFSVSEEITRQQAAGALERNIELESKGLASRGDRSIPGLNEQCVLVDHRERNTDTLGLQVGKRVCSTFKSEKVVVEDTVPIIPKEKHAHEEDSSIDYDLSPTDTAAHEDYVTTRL

[4] = biological target: Dual specificity tyrosine-phosphorylation-regulated kinase 1A (Rattus norvegicus, UniProt Q63470); format: biochemical, Homo sapiens
Estrogen receptor = biological target: T3, Estrogen receptor (Homo sapiens, UniProt P03372);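 further: potency for inhibiting coactivator peptide recruitment to the receptor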
T3 sequence (P03372 whole entry): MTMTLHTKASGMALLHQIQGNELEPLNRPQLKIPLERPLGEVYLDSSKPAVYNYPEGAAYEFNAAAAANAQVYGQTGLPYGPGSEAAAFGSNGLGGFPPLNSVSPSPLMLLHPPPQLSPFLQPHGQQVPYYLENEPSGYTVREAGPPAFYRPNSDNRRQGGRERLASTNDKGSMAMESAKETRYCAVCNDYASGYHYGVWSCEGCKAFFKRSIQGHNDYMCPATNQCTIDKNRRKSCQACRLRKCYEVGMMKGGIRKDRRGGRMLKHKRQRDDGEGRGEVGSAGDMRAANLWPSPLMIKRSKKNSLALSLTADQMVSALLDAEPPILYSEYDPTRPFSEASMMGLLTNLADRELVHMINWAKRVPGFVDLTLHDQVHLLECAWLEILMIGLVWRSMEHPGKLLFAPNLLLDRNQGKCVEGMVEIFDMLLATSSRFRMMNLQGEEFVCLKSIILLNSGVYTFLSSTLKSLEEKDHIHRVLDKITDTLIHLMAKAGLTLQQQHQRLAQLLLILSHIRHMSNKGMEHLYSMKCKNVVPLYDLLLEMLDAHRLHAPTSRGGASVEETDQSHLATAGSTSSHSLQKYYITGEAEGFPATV

[5] = inhibitors of HIV Env-driven cell fusion, dose response, cherry-pick (AID 652057); format: functional, cell-based
[6] = ZM109 Env clade C HIV-1 fusion inhibitors, dose response, HeLa effector, CEM target cells, luciferase, cherry-pick (AID 652058); format: functional, cell-based
[7] = inhibitors of clade B AD8 Env fusion, dose response, cell-based, cherry-pick (AID 652062); format: functional;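 further: luciferase signal from cell-cell fusion driven by HIV-1 clade B AD8 Env; potency is for inhibitors of fusion seen as a drop in luminescence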
Leucine aminopeptidase = biological target: T4, Leucine aminopeptidase (Plasmodium falciparum 3D7, UniProt Q8IL11); experiment: P. falciparum M17LAP inhibitors, primary screen, biochemical, fluorogenic H-Leu-NHMec substrate, 1536-well (AID 1619); format: functional
T4 sequence (Q8IL11 whole entry): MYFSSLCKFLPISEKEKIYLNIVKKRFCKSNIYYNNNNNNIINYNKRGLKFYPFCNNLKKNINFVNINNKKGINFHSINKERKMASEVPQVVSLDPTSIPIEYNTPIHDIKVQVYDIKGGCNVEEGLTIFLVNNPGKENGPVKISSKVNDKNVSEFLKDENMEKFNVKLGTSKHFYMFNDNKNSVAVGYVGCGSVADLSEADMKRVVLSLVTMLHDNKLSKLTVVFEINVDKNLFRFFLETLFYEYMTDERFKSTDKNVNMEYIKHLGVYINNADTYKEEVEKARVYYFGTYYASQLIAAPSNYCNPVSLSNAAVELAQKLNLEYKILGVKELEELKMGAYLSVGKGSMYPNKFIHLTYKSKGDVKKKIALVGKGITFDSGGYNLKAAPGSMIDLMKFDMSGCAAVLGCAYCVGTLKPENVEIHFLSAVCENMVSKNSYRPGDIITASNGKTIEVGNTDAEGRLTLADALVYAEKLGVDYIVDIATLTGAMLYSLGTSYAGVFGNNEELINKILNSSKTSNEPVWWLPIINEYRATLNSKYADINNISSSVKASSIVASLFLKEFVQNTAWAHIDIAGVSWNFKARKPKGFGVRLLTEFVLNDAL

[8] = M. tuberculosis H37Rv growth inhibitors, H37Rv strain (AID 1626); format: functional
[9] = biological target: Eukaryotic translation initiation factor 4E (Mus musculus, UniProt P63073); experiment: eIF4E–eIF4G protein interaction inhibitors, dose response, biochemical, TR-FRET (AID 855); format: functional;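 further: potency for disrupting eIF4E binding to eIF4GI seen as loss of FRET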
[10] = biological target: T5, Voltage-gated N-type calcium channel alpha-1B subunit/Amyloid beta A4 precursor protein-binding family A member 1 (Homo sapiens, UniProt Q00975+Q02410); experiment: disruptors of Mint-PDZ/N-type channel peptide interaction – biochemical, HTRF, set 2, SAR follow-up (AID 434980); format: functional
[11] = biological target: T5, Voltage-gated N-type calcium channel alpha-1B subunit/Amyloid beta A4 precursor protein-binding family A member 1; experiment: disruptors of Mint-PDZ/N-type channel peptide interaction – biochemical, HTRF, SAR follow-up (AID 2489); format: functional
Large T antigen = Large T antigen (Simian virus 40, UniProt P03070); format: functional, Betapolyomavirus macacae;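 further: Confirmatory-stage PubChem screen for compounds that inhibit SV40 T antigen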
[12] = inhibitors of firefly luciferase expression or activity, dose response, H4 neuroglioma cells, luminescence (AID 1990); format: functional, cell-based
[13] = Luminescence Cell-Based Dose Response HTS to Identify Inhibitors of 5'UTR Stem-Loop Driven Prion Protein mRNA Translation in H4 Neuroglioblastoma Cells. [Related pubchem assays: 1827 (Project Summary), 1813 (Primary HTS)]; format: functional
[14] = inhibitors of SNCA 5'UTR-driven reporter translation, confirmation, H4 neuroglioma cells, luminescence (AID 1988); format: functional, cell-based
[15] = cytotoxicity in HPDE-C7 cells, cell-based, fluorescence, HTS (AID 430); format: functional; settings: Homo sapiens
[16] = cytotoxicity in KRAS-transformed pancreatic duct cells, primary screen, cell-based, fluorescence, HTS (AID 431); format: functional; settings: Homo sapiens;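 further: cell line used: HPDE-C7K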
[17] = growth suppression of PTEN-null colon cells, dose response, cell-based, HCT116 PTEN knockout (AID 1047); format: functional;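 further: HCT116 colon tumor cells with PTEN knocked out; cells exposed to compound for 60 hours before readout; potency for loss of cell viability measured by luminescence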
[18] = growth suppression of beta-catenin-knockout colon cells, dose response, cell-based, HCT116, human colon tumor (AID 1045); format: functional;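 further: HCT116 colon tumor cells with beta catenin knocked out; cells exposed to compound for 60 hours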
[19] = biological target: T6, Ubiquitin-conjugating enzyme E2 N (Homo sapiens, UniProt P61088); format: functional;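 further: Dose-response confirmation in a TR-FRET assay detecting UBC13-driven polyubiquitin chain formation, inhibition measured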
T6 sequence (P61088 whole entry): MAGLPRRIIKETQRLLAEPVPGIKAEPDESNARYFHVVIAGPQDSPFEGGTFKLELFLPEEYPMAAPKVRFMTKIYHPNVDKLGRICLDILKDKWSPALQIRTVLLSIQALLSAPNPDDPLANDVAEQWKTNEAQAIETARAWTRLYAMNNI

Cytochrome P450 2C19 = Cytochrome P450 2C19 (Homo sapiens, UniProt P33261); experiment: Cytochrome panel assay with activity outcomes. Panel member name: p450-cyp2c19 Compounds with AC50 equal or less than 10 uM are considered active; format: functional; settings: read-out: AC50
[20] = Shn3 3'UTR reporter inhibitors, dose response, cell-based, Clone20 osteoblasts, firefly luciferase, cherry-picked (AID 624132); format: functional;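 further: firefly luciferase luminescence from reporter carrying the Shn3 3'UTR in osteoblasts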
[21] = HepG2 cell cytotoxicity, dose response, cytotoxicity control for Shn3 inhibitor project, CellTiter-Glo, cherry-picked (AID 624134); format: functional, cell-based
[22] = control 3'UTR Renilla luciferase suppression, dose response, counter-screen for Shn3 inhibitor project, cell-based, Clone20-Shn3RL, cherry-picked (AID 624133); format: functional
Cytochrome P450 2D6 = Cytochrome P450 2D6 (Homo sapiens, UniProt P10635);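 further: CYP2D6 member of a cytochrome P450 panel assay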
Cytochrome P450 3A4 = Cytochrome P450 3A4 (Homo sapiens, UniProt P08684);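 further: CYP3A4 tested as one member of a cytochrome P450 panel screen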
Cytochrome P450 2C9 = Cytochrome P450 2C9 (Homo sapiens, UniProt P11712)
Cytochrome P450 2C9, sequence (P11712 whole entry): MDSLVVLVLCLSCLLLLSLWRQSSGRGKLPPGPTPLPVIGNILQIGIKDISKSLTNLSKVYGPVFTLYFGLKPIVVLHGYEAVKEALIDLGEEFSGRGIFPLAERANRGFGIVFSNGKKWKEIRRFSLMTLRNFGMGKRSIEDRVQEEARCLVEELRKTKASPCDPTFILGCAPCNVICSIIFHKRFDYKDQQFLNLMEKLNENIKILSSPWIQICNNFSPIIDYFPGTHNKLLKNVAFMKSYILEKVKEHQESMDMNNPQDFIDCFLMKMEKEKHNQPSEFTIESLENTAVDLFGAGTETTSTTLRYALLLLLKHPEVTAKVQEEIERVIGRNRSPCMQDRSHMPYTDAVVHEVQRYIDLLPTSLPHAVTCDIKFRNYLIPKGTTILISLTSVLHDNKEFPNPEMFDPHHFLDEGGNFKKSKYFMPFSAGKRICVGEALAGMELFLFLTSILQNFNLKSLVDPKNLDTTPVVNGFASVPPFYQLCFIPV

Procathepsin L, sequence (P07711 whole entry): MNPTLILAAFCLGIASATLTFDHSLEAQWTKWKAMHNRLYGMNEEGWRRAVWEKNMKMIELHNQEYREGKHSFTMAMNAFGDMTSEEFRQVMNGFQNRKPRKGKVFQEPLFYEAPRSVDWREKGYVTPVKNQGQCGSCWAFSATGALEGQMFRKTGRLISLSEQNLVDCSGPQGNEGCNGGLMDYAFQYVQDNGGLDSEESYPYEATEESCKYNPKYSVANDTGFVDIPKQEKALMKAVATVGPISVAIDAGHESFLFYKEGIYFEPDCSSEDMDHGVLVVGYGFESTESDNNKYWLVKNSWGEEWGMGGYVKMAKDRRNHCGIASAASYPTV
T5 sequence (Q00975 whole entry): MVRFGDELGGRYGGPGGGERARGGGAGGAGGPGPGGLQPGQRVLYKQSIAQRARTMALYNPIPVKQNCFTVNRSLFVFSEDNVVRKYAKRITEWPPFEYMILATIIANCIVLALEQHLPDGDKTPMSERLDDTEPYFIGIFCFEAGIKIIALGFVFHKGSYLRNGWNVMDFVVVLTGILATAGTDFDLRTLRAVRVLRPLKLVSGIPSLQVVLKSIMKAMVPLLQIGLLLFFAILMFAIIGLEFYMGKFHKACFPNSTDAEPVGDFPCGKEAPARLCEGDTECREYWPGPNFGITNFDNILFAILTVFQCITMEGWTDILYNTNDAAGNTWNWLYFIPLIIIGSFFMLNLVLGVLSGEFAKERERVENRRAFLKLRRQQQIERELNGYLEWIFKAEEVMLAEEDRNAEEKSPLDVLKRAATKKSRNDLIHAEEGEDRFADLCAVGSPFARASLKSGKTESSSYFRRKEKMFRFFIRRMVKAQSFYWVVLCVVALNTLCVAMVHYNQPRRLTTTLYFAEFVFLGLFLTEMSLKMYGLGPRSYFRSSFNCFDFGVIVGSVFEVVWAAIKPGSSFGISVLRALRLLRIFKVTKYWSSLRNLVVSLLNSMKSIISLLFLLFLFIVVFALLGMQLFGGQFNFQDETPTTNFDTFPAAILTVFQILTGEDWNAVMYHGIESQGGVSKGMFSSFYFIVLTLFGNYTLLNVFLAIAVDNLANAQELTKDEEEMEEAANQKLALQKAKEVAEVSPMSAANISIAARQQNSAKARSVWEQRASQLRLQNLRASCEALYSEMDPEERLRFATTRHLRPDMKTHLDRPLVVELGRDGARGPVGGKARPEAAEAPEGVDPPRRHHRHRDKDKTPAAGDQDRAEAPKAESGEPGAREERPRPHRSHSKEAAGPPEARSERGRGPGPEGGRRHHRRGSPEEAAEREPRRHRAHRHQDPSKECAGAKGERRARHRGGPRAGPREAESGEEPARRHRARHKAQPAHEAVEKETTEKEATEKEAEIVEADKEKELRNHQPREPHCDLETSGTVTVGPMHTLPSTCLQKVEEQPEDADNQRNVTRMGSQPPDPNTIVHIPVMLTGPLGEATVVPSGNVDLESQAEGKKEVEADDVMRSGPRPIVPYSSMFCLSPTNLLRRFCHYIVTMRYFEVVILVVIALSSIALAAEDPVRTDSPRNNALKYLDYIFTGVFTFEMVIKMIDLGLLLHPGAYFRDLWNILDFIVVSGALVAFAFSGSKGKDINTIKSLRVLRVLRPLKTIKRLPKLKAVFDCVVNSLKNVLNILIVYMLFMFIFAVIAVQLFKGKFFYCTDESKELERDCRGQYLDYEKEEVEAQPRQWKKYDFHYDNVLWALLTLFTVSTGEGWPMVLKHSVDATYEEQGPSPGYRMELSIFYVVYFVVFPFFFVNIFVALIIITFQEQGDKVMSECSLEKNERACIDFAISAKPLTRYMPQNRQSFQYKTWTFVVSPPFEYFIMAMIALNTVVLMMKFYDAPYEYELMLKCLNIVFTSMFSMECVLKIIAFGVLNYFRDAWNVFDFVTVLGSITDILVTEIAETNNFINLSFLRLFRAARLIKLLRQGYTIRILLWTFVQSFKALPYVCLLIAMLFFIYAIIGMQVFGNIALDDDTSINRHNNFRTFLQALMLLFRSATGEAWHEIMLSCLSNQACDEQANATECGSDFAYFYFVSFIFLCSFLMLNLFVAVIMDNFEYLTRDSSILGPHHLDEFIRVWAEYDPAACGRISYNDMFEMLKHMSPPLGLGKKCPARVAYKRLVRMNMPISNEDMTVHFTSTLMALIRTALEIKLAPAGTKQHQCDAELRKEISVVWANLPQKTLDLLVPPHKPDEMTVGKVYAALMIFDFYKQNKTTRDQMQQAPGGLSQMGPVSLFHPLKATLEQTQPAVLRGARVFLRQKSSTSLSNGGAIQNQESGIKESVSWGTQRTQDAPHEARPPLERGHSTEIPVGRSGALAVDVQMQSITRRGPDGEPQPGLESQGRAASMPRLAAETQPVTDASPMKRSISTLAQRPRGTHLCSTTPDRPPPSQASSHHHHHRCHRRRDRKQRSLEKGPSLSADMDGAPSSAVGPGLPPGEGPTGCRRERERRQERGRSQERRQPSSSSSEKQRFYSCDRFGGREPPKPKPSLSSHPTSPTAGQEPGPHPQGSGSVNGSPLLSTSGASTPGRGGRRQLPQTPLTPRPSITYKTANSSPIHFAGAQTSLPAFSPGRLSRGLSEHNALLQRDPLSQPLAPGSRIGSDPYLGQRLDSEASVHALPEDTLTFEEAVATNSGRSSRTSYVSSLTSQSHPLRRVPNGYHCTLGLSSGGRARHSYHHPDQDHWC
T5 sequence (Q02410 whole entry): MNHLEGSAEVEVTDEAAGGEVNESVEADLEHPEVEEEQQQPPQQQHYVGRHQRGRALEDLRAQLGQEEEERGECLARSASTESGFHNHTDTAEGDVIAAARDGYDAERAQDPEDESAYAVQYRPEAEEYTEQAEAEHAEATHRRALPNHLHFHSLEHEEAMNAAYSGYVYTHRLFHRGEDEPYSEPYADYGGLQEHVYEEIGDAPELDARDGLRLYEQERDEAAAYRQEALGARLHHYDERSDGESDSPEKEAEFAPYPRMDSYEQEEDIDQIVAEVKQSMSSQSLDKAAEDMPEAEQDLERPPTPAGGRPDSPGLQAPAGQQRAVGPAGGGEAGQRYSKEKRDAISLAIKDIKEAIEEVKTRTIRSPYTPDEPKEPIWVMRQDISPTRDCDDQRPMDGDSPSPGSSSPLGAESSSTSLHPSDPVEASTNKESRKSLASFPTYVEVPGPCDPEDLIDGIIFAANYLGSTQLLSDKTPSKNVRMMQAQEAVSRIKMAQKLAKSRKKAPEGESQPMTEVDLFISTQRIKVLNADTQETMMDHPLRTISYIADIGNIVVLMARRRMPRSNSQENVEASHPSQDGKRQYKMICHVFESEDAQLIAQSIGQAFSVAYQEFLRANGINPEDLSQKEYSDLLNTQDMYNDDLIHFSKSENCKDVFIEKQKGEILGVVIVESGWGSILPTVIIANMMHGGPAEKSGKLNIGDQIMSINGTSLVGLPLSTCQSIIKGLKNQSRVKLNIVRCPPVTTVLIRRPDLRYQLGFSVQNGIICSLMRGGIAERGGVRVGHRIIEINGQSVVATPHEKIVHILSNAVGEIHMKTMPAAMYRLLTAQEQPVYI
Cytochrome P450 2D6, sequence (P10635 whole entry): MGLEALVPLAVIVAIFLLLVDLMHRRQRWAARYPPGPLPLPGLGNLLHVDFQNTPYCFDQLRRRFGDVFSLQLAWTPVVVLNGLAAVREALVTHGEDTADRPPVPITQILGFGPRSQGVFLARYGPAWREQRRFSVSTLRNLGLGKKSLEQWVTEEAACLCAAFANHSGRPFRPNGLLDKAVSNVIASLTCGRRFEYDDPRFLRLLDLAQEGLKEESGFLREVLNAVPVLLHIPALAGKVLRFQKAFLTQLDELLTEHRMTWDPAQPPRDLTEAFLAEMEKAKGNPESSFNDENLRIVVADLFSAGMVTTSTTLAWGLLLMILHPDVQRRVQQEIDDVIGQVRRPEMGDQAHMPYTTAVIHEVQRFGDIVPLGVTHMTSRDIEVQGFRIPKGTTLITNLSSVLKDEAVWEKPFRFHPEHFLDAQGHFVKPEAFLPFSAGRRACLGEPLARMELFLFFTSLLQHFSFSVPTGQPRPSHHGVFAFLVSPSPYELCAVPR
Cytochrome P450 3A4, sequence (P08684 whole entry): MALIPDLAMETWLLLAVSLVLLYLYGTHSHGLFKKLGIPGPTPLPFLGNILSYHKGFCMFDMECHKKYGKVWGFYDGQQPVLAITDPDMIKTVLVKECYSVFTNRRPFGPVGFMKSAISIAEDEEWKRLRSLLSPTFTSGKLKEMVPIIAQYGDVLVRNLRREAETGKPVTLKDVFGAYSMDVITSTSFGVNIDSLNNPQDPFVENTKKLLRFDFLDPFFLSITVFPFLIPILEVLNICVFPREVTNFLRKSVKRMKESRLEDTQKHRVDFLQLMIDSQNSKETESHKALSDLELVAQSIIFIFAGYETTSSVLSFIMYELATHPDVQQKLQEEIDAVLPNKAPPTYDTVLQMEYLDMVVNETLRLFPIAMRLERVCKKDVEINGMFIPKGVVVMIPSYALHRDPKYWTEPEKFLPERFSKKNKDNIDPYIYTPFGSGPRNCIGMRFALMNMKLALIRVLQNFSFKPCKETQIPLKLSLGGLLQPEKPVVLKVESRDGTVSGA

## CCCCOc1ccc(-c2nnn(CC(=O)Nc3ncc(CC(=O)OCC)s3)n2)cc1
[1]
  EC50: > 50 µM (active)

## O=C(CSc1nnc(-c2ccccc2)o1)Nn1cnnc1
Aspartyl aminopeptidase
  IC50: 2.09 µM (active)
Procathepsin L
  IC50: > 59.6 µM (not active)

## Oc1ccc(-c2csc(-c3ccccc3)n2)cc1O
[2]
  EC50: > 120 µM (not active)
Aspartyl aminopeptidase
  IC50: 2.78 µM (active)
Procathepsin L
  IC50: > 59.6 µM (not active)
H4
  EC50: 6.54 µM (active)
[3]
  EC50: 4.73 µM (active)
[4]
  AC50: 6.72 µM (active)

## O=C(Nc1ccccc1Cl)Nn1cnnc1
Aspartyl aminopeptidase
  IC50: 1.47 µM (active)
Procathepsin L
  IC50: > 59.6 µM (not active)

## O=C(NCc1cccs1)C(=O)NCC(c1ccco1)N1CCN(c2ccc(F)cc2)CC1 (centres undefined)
[1]
  EC50: > 50 µM (active)

## O=S(=O)(NCCc1csc(-c2cccnc2)n1)c1ccc(Cl)s1
Estrogen receptor
  IC50: 19.2 µM (active)
[5]
  AC50: 42 µM (active)
[6]
  AC50: 7.17 µM (active)
[7]
  AC50: 12 µM (active)

## Cc1ccccc1Nc1nnc(SCC(=O)NC(=O)NCc2ccco2)s1
Leucine aminopeptidase
  IC50: 25.1 µM (active)
Estrogen receptor
  IC50: 17.3 µM (active)

## CCOC(=O)c1cnn(C(=O)c2ccccc2)c1N
[8]
  IC50: > 100 µM (active)
[9]
  IC50: > 64 µM (inactive)

## CC12C=CC(C)(O1)C1C(=O)N(c3ccc(F)cc3)C(=O)C12 (centres undefined)
[10]
  IC50: 8.89 µM (active)
[11]
  IC50: 10.7 µM (active)

## COc1ccc(/N=C/c2c[nH]nc2O)cc1
[8]
  IC50: > 100 µM (active)
Large T antigen
  IC50: 17.9 µM (active)

## COc1ccc(CCN2CCC(Nc3nc4ccccc4n3Cc3ccc(F)cc3)CC2)cc1 [ASTEMIZOLE]
[12]
  EC50: > 60 µM (not active)
[13]
  EC50: 9.34 µM (active)
[14]
  EC50: 7.94 µM (active)
[15]
  EC50: 12.4 µM (active)
[16]
  EC50: 13.6 µM (active)
[17]
  EC50: 5.87 µM (active)
[18]
  EC50: 3.78 µM (active)
[19]
  IC50: > 20 µM (inactive)
Cytochrome P450 2C19
  AC50: 7.94 µM (inconclusive)
[20]
  AC50: 3.03 µM (active)
[21]
  AC50: 12.6 µM (active)
[22]
  AC50: 19.7 µM (active)
Cytochrome P450 2D6
  AC50: 7.94 µM (active)
Cytochrome P450 3A4
  AC50: inactive
Cytochrome P450 2C9
  AC50: inactive
